Values joined by “and” are separate entries in the source; they are usually repeats but may differ in a detail not shown here. Equal entries are not always repeated.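 Following 48 hours of exposure in 96-well plates, responses at five concentrations were used to interpolate endpoints linearly. GI50 = concentration required for 50% inhibition of growth. TGI is the concentration that stops growth completely.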
Legend:
Assay in all cases: growth of human tumour cells (NCI), 48 h
786-0 renal = system: 786-0 renal
CCRF-CEM leukemia = system: CCRF-CEM leukemia
HT29 colon = system: HT29 colon
IGROV1 ovarian = system: IGROV1 ovarian
MDA-MB-435 = system: MDA-MB-435
NCI-H460 lung = system: NCI-H460 lung
OVCAR-4 ovarian = system: OVCAR-4 ovarian
SF-295 CNS = system: SF-295 CNS
SNB-19 CNS = system: SNB-19 CNS
SW-620 colon = system: SW-620 colon

| Structure (SMILES) | GI50 (786-0 renal) | TGI (786-0 renal) | GI50 (CCRF-CEM leukemia) | TGI (CCRF-CEM leukemia) | GI50 (HT29 colon) | TGI (HT29 colon) | GI50 (IGROV1 ovarian) | TGI (IGROV1 ovarian) | GI50 (MDA-MB-435) | TGI (MDA-MB-435) | GI50 (NCI-H460 lung) | TGI (NCI-H460 lung) | GI50 (OVCAR-4 ovarian) | TGI (OVCAR-4 ovarian) | GI50 (SF-295 CNS) | TGI (SF-295 CNS) | TGI (SNB-19 CNS) | GI50 (SW-620 colon) | TGI (SW-620 colon) | GI50 (SNB-19 CNS) |
| --- | --- | --- | --- | --- | --- | --- | --- | --- | --- | --- | --- | --- | --- | --- | --- | --- | --- | --- | --- | --- |
| N/C(=N\N=C\c1ccc(-c2ccccc2)cc1)N[N+](=O)[O-] | 10.4 µM | > 100 µM | 3.1 µM | > 100 µM | 3.59 µM | > 100 µM | 28 µM | > 100 µM | 0.226 µM | 0.599 µM | 2.98 µM | > 100 µM | 10.8 µM | > 100 µM | 2.61 µM | > 100 µM | > 100 µM | 0.796 µM | > 100 µM |  |
| CCCCNCC(=O)O[C@]1(CC)C(=O)OCc2c1cc1n(c2=O)Cc2cc3ccccc3nc2-1 |  | 0.946 µM |  | 0.723 µM |  | > 100 µM |  | > 39.3 µM |  | 11.3 µM |  | 1.68 µM |  | 20.4 µM |  | 11.7 µM | > 61.1 µM |  |  |  |
| COc1cccc(C=Nc2cc(C)ccn2)c1O.COc1cccc(C=Nc2cc(C)ccn2)c1O.[Cu] | 14.3 µM | 45.2 µM | 6.01 µM | 32.1 µM | 23.1 µM | 52.4 µM | 21.4 µM | 48.8 µM | 13.6 µM | 45.9 µM | 18.3 µM | 44 µM | 25.4 µM | > 100 µM | 18 µM | 46.1 µM | 60.5 µM | 18.3 µM | 51.9 µM | 19.7 µM |
| COc1ccc(NC(=O)/C(=N\NC(=O)C[n+]2ccccc2)c2c(O)c3ccc(O)cc3oc2=O)c([N+](=O)[O-])c1 |  | > 100 µM |  | > 100 µM |  | > 100 µM |  | > 100 µM |  | > 100 µM |  | > 100 µM |  | > 100 µM |  | > 100 µM | > 100 µM |  | > 100 µM |  |
| COC(=O)C(Cc1ccccc1)NC(=O)NC(=O)NC(=O)CI (stereo not drawn) | 3.35 µM | 10.9 µM | 1.14 µM | 3.81 µM | 14.2 µM | 49.9 µM | 3.05 µM | 10.1 µM | 3.38 µM | 13.8 µM | 22.6 µM | 50.1 µM | 4.41 µM | 24.4 µM | 16.4 µM | 31.2 µM | 36.4 µM | 5.95 µM | 21.7 µM | 17.6 µM |
| CCCn1c(C)nc2c1C(=O)c1ccccc1C2=O | 56.8 µM | > 100 µM | 15.6 µM | > 100 µM | 25.8 µM | 71.6 µM | 14.5 µM | 42.1 µM | 17.2 µM | 32.9 µM | 20.4 µM | 57.3 µM | 25 µM | > 100 µM | 13 µM | 41.6 µM | > 100 µM | 33.5 µM | > 100 µM | 53.3 µM |
| COC(=O)Cn1c2c(c3c(O)cccc31)C(=O)c1ccccc1-2 | > 100 µM | > 100 µM | > 100 µM | > 100 µM | > 100 µM | > 100 µM | > 100 µM | > 100 µM | > 100 µM | > 100 µM | > 100 µM | > 100 µM | > 100 µM | > 100 µM | > 100 µM | > 100 µM | > 100 µM | > 100 µM | > 100 µM | > 100 µM |
| O=C(N/N=C/c1ccc2c(c1)CCC2)c1ccccc1O |  | 45 µM |  | > 100 µM |  | > 100 µM |  | 55.9 µM |  | 51.9 µM |  | 63.2 µM |  | 60.2 µM |  | 36.6 µM | 44.7 µM |  | > 100 µM |  |
| Nc1ncnc2[nH]ncc12 | 0.623 µM | 21.2 µM | 3.57 µM | > 100 µM | 1.83 µM | > 94.5 µM | 0.744 µM | 4.62 µM | 0.58 µM | > 56 µM | 2.1 µM | > 100 µM | 0.277 µM | 37.9 µM | 0.401 µM | 6.37 µM | > 100 µM | 0.646 µM | > 100 µM | 13.8 µM |
| O=C(/C(=C/c1ccccc1)CN1CCCCC1)c1ccccc1 | 1.79 µM | 3.64 µM | 0.346 µM | > 45.3 µM | 0.518 µM | 1.27 µM | 1.89 µM | 6.25 µM | 0.57 µM | 5.21 µM | 2.05 µM | 4.91 µM | 2.05 µM | 9.53 µM | 2.42 µM | 7.08 µM | 15.7 µM | 0.398 µM | 1.53 µM | 3.9 µM |
| C=CCOC1OC(CO[Si](C)(C)C(C)(C)C)C(OCc2ccccc2)C(OCc2ccccc2)C1OCc1ccccc1 (stereo not drawn) |  | 22.3 µM |  | > 100 µM |  | > 100 µM |  | > 100 µM |  | > 100 µM |  | > 100 µM |  | > 100 µM |  | 54.9 µM | 60.3 µM |  | > 100 µM |  |
| O=S(=O)(NCCNC/C=C/c1ccc(Br)cc1)c1cccc2cnccc12 | 4.22 µM and 9.27 µM | 19.8 µM and 21.9 µM | 3.45 µM and 13.3 µM | 20.6 µM and 34.2 µM | 5.44 µM and 13.7 µM | 18.9 µM and 28.8 µM | 6.4 µM and 10.4 µM | 23.2 µM and 26.4 µM | 9.22 µM and 12.5 µM | 25.2 µM and 25.6 µM | 9.76 µM and 15.4 µM | 26.2 µM and 31.6 µM | 5.51 µM and 7.36 µM | 18.6 µM and 23.6 µM | 6.47 µM and 11.6 µM | 22.9 µM and 25.1 µM | 27 µM and 34.1 µM | 12.6 µM and 16.8 µM | 27.6 µM and 32.4 µM | 13.1 µM and 17.7 µM |
| Cc1ccc(C(=O)Nc2ccc(CN3CCN(C)CC3)c(C(F)(F)F)c2)cc1C#Cc1cnc2cccnn12 | 0.428 µM and 0.903 µM | 1.69 µM and 4.1 µM | 0.618 µM and 1.65 µM | 5.21 µM and 5.63 µM | 0.3 µM and 0.469 µM | 1.29 µM and 3.42 µM | 0.272 µM and 0.269 µM | 1.28 µM and 1.81 µM | 0.26 µM and 0.753 µM | 1.23 µM and 3.62 µM | 0.763 µM | 4.07 µM | 0.171 µM and 0.479 µM | 1.64 µM and 4.32 µM | 0.327 µM and 1.26 µM | 1.75 µM and 4.27 µM | 2.28 µM and 4.67 µM | 0.283 µM and 0.594 µM | 1.52 µM and 4.12 µM | 0.973 µM and 2.7 µM |
| Cc1cc(N/N=C/c2nc(-c3ccc(Br)cc3)oc2C)c2cc(Cl)ccc2n1 | > 100 µM | > 100 µM | > 100 µM | > 100 µM | > 100 µM | > 100 µM | > 100 µM | > 100 µM | > 100 µM | > 100 µM | > 100 µM | > 100 µM | > 100 µM | > 100 µM | > 100 µM | > 100 µM | > 100 µM | > 100 µM | > 100 µM | > 100 µM |
